The compounds below were run against T1, recombinant human NK3 receptor (Homo sapiens, UniProt P29371) (assay: [3H]SR142801 competition binding assay). Conditions: not given.
T1 construct: expressed in transfected cells; host or cells: HEK293 cells, transient expression; membranes
T1 sequence (P29371 1-465): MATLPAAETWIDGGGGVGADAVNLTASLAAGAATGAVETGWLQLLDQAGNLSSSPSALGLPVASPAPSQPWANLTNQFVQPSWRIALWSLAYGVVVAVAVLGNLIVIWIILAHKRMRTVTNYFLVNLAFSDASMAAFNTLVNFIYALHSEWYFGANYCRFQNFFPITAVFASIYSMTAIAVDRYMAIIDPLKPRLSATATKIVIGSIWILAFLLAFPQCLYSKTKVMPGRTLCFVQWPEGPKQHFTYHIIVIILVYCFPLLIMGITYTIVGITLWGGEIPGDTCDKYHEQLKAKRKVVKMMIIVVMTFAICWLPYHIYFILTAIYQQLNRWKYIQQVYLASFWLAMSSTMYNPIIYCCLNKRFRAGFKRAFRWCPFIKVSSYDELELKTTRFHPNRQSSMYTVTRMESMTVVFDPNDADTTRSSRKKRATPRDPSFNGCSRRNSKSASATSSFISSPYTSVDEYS
With `CN(C(=O)Oc1ccc(F)cc1)[C@H]1CN(C(=O)C2CCN(c3ccc(Cl)nn3)CC2)C[C@@H]1c1ccc(Cl)c(Cl)c1` (racemic) [Example 79, rac-[(3R,4S)-1-[1-(6-Chloro-pyridazin-3-yl)-piperidine-4-carbonyl]-4-(3,4-dichloro-phenyl)-pyrrolidin-3-yl]-methyl-carbamic acid 4-fluoro-phenyl ester] the Ki was 0.4 nM.
Compound `CN(C(=O)Oc1ccc(F)cc1)[C@H]1CN(C(=O)C2CCN(C(=O)C3CC3)CC2)C[C@@H]1c1ccc(Cl)c(Cl)c1` (racemic) [Example 74, rac-[(3R,4S)-1-(1-Cyclopropanecarbonyl-piperidine-4-carbonyl)-4-(3,4-dichloro-phenyl)-pyrrolidin-3-yl]-methyl-carbamic acid 4-fluoro-phenyl ester] has a Ki of 0.8 nM.
Work on `CN(C(=O)Oc1ccc(F)cc1)[C@H]1CN(C(=O)[C@H]2CC[C@H](O)CC2)C[C@@H]1c1ccc(Cl)c(Cl)c1` (stereo in doubt) [Example 45, [(3R,4S)-4-(3,4-Dichloro-phenyl)-1-(trans-4-hydroxy-cyclohexanecarbonyl)-pyrrolidin-3-yl]-methyl-carbamic acid 4-fluoro-phenyl ester] yielded a Ki of 3.2 nM.
With `CN(C(=O)OCC(C)(C)C)[C@@H]1CN(C(=O)C2CCN(c3ccc(C#N)cn3)CC2)C[C@H]1c1ccc(Cl)cc1` [Example 205, [(3S,4R)-4-(4-Chloro-phenyl)-1-(5′-cyano-3,4,5,6-tetrahydro-2H-[1,2′]bipyridinyl-4-carbonyl)-pyrrolidin-3-yl]-methyl-carbamic acid 2,2-dimethyl-propyl ester] the Ki was 5.7 nM.
With `COC1CC(C(=O)N2C[C@@H](N(C)C(=O)Oc3ccc(F)cc3)[C@H](c3ccc(Cl)cc3)C2)C1` (stereo partly drawn) [Example 149, [(3S,4R)-4-(4-Chloro-phenyl)-1-(3-methoxy-cyclobutanecarbonyl)-pyrrolidin-3-yl]-methyl-carbamic acid 4-fluoro-phenyl ester] the Ki was 90.8 nM.
For `CC1(C(=O)N2CCC(C(=O)N3C[C@H](NC(=O)Oc4ccc(F)cc4)[C@@H](c4ccc(Cl)c(Cl)c4)C3)CC2)CC1` (racemic) [Example 43, rac-{(3R,4S)-4-(3,4-Dichloro-phenyl)-1-[1-(1-methyl-cyclopropanecarbonyl)-piperidine-4-carbonyl]-pyrrolidin-3-yl}-carbamic acid 4-fluoro-phenyl ester], the Ki was 3.4 nM.
Compound `CN(C(=O)Oc1ccc(F)cc1)[C@@H]1CN(C(=O)C2CCN(C(=O)C3(C)CC3)CC2)C[C@H]1c1ccc(Cl)c(Cl)c1` [Example 6, {(3S,4R)-4-(3,4-Dichloro-phenyl)-1-[1-(1-methyl-cyclopropanecarbonyl)-piperidine-4-carbonyl]-pyrrolidin-3-yl}-methyl-carbamic acid 4-fluoro-phenyl ester] has a Ki of 0.5 nM.
For `CN(C(=O)Oc1ccc(F)cc1)[C@H]1CN(C(=O)C2CCN(C(=O)OC(C)(C)C)CC2)C[C@@H]1c1ccc(Cl)c(Cl)c1` (racemic) [Example 66, rac-4-{(3S,4R)-3-(3,4-Dichloro-phenyl)-4-[(4-fluoro-phenoxycarbonyl)-methyl-amino]-pyrrolidine-1-carbonyl}-piperidine-1-carboxylic acid tert-butyl ester], the Ki was 0.8 nM.
`CC(C)COC(=O)N(C)[C@@H]1CN(C(=O)C2CCN(C(=O)C3(C)CC3)CC2)C[C@H]1c1ccc(Cl)cc1` [Example 141, {(3S,4R)-4-(4-Chloro-phenyl)-1-[1-(1-methyl-cyclopropanecarbonyl)-piperidine-4-carbonyl]-pyrrolidin-3-yl}-methyl-carbamic acid isobutyl ester] showed a Ki of 13.5 nM.
With `CN(C(=O)Oc1ccc(F)cc1)[C@H]1CN(C(=O)C2CCN(c3ccc(C#N)cn3)CC2)C[C@@H]1c1ccc(Cl)cc1` [Example 122, [(3R,4S)-4-(4-Chloro-phenyl)-1-(5′-cyano-3,4,5,6-tetrahydro-2H-[1,2′]bipyridinyl-4-carbonyl)-pyrrolidin-3-yl]-methyl-carbamic acid 4-fluoro-phenyl ester] the Ki was 19 nM.
In the case of `CN(C(=O)Oc1ccc(F)cc1)[C@@H]1CN(C(=O)C2CCN(C(=O)C3(C(F)(F)F)CC3)CC2)C[C@H]1c1ccc(Cl)cc1` [Example 255, {(3S,4R)-4-(4-Chloro-phenyl)-1-[1-(1-trifluoromethyl-cyclopropanecarbonyl)-piperidine-4-carbonyl]-pyrrolidin-3-yl}-methyl-carbamic acid 4-fluoro-phenyl ester], the Ki is reported as 2.5 nM.
For `CN(C(=O)Oc1cccc(C#N)c1)[C@@H]1CN(C(=O)C2CCN(c3ccc(C#N)cn3)CC2)C[C@H]1c1ccc(Cl)cc1` [Example 225, [(3S,4R)-4-(4-Chloro-phenyl)-1-(5′-cyano-3,4,5,6-tetrahydro-2H-[1,2′]bipyridinyl-4-carbonyl)-pyrrolidin-3-yl]-methyl-carbamic acid 3-cyano-phenyl ester], the Ki was 11.2 nM.
`CC(=O)c1ccc(N2CCC(C(=O)N3C[C@@H](N(C)C(=O)Oc4ccc(F)cc4)[C@H](c4ccc(Cl)cc4)C3)CC2)nc1` [Example 182, [(3S,4R)-1-(5′-Acetyl-3,4,5,6-tetrahydro-2H-[1,2′]bipyridinyl-4-carbonyl)-4-(4-chloro-phenyl)-pyrrolidin-3-yl]-methyl-carbamic acid 4-fluoro-phenyl ester] showed a Ki of 2 nM.
`CC(CC(F)(F)F)OC(=O)N(C)[C@@H]1CN(C(=O)C2CCN(c3ccc(C#N)cn3)CC2)C[C@H]1c1ccc(Cl)cc1` (stereo partly drawn) [Example 177, [(3S,4R)-4-(4-Chloro-phenyl)-1-(5′-cyano-3,4,5,6-tetrahydro-2H-[1,2′]bipyridinyl-4-carbonyl)-pyrrolidin-3-yl]-methyl-carbamic acid 3,3,3-trifluoro-1-methyl-propyl ester] gave a Ki of 18.9 nM.
Compound `CCCCOC(=O)N(C)[C@H]1CN(C(=O)C2CCN(CC3CC3)CC2)C[C@@H]1c1ccc(Cl)c(Cl)c1` (racemic) [Example 11, rac-[(3R,4S)-1-(1-Cyclopropylmethyl-piperidine-4-carbonyl)-4-(3,4-dichloro-phenyl)-pyrrolidin-3-yl]-methyl-carbamic acid butyl ester] has a Ki of 27.1 nM.
`COCC(=O)N1CCC(C(=O)N2C[C@@H](N(C)C(=O)Oc3ccc(F)cc3)[C@H](c3ccc(Cl)cc3)C2)C1` (stereo partly drawn) [Example 172, {(3S,4R)-4-(4-Chloro-phenyl)-1-[1-(2-methoxy-acetyl)-pyrrolidine-3-carbonyl]-pyrrolidin-3-yl}-methyl-carbamic acid 4-fluoro-phenyl ester] was tested, and the Ki was 4.1 nM.
For `CN(C(=O)Oc1ccc(F)c(F)c1)[C@@H]1CN(C(=O)C2CCN(c3ccc(C#N)cn3)CC2)C[C@H]1c1ccc(Cl)cc1` [Example 209, [(3S,4R)-4-(4-Chloro-phenyl)-1-(5′-cyano-3,4,5,6-tetrahydro-2H-[1,2′]bipyridinyl-4-carbonyl)-pyrrolidin-3-yl]-methyl-carbamic acid 3,4-difluoro-phenyl ester], the Ki was 0.8 nM.
With `COc1ccc(N2CCC(C(=O)N3C[C@@H](N(C)C(=O)Oc4ccc(F)cc4)[C@H](c4ccc(Cl)cc4)C3)CC2)nn1` [Example 197, {(3S,4R)-4-(4-Chloro-phenyl)-1-[1-(6-methoxy-pyridazin-3-yl)-piperidine-4-carbonyl]-pyrrolidin-3-yl}-methyl-carbamic acid 4-fluoro-phenyl ester] the Ki was 2.6 nM.
For `Cc1ccc(OC(=O)N(C)[C@H]2CN(C(=O)C3CCN(C(=O)C4(C)CC4)CC3)C[C@@H]2c2ccc(Cl)c(Cl)c2)cc1` (racemic) [Example 14, rac-{(3R,4S)-4-(3,4-Dichloro-phenyl)-1-[1-(1-methyl-cyclopropanecarbonyl)-piperidine-4-carbonyl]-pyrrolidin-3-yl}-methyl-carbamic acid p-tolyl ester], the Ki was 1.2 nM.
In the case of `CN(C(=O)Oc1ccc(F)cc1)[C@@H]1CN(C(=O)C2CCN(C(=O)CC#N)CC2)C[C@H]1c1ccc(Cl)c(Cl)c1` [Example 271, [(3S,4R)-1-[1-(2-Cyano-acetyl)-piperidine-4-carbonyl]-4-(3,4-dichloro-phenyl)-pyrrolidin-3-yl]-methyl-carbamic acid 4-fluoro-phenyl ester], the Ki is reported as 0.1 nM.
`CN(C(=O)Oc1ccc(F)cc1)[C@@H]1CN(C(=O)C2CCN(c3ccc(S(C)(=O)=O)cn3)CC2)C[C@H]1c1ccc(Cl)cc1` [Example 180, [(3S,4R)-4-(4-Chloro-phenyl)-1-(5′-methanesulfonyl-3,4,5,6-tetrahydro-2H-[1,2′]bipyridinyl-4-carbonyl)-pyrrolidin-3-yl]-methyl-carbamic acid 4-fluoro-phenyl ester] showed a Ki of 0.7 nM.
`Cc1cccc(OC(=O)N(C)[C@@H]2CN(C(=O)C3CCN(c4ccc(C#N)cn4)CC3)C[C@H]2c2ccc(Cl)cc2)c1` [Example 230, [(3S,4R)-4-(4-Chloro-phenyl)-1-(5′-cyano-3,4,5,6-tetrahydro-2H-[1,2′]bipyridinyl-4-carbonyl)-pyrrolidin-3-yl]-methyl-carbamic acid m-tolyl ester] showed a Ki of 2.7 nM.

Same assay, conditions: hNK-3 receptor affinity; membranes from HEK293 cells transiently expressing recombinant human NK3 receptor; [3H]SR142801; Cheng-Prussoff; read-out: Data Ki
`CN(C(=O)OCCCC(F)(F)F)[C@@H]1CN(C(=O)C2CCN(C(=O)C3(C)CC3)CC2)C[C@H]1c1ccc(Cl)c(Cl)c1` [Example 82, {(3S,4R)-4-(3,4-Dichloro-phenyl)-1-[1-(1-methyl-cyclopropanecarbonyl)-piperidine-4-carbonyl]-pyrrolidin-3-yl}-methyl-carbamic acid 4,4,4-trifluoro-butyl ester] was tested, and the Ki was 1.4 nM.
